Patent US11964988B2, “Fused heterocyclic compounds as RET kinase inhibitors” (ARRAY BIOPHARMA INC., priority 2018, dated 2024)
Numbering of substitutions follows the chain as printed. Where two headings read alike, the source gives them in different places.

How the values were obtained:
[1] = biological target: T1, G810S mutant RET kinase (Homo sapiens, UniProt P07949, G810S);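 further: HTRF KinEASE-TK kinase assay with recombinant enzyme, 1 h at 22 °C, dual-wavelength ratiometric read-out, percent of control (DMSO-only = 100, pre-quenched reaction = 0)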
T1 sequence (P07949 29-1114 G810S): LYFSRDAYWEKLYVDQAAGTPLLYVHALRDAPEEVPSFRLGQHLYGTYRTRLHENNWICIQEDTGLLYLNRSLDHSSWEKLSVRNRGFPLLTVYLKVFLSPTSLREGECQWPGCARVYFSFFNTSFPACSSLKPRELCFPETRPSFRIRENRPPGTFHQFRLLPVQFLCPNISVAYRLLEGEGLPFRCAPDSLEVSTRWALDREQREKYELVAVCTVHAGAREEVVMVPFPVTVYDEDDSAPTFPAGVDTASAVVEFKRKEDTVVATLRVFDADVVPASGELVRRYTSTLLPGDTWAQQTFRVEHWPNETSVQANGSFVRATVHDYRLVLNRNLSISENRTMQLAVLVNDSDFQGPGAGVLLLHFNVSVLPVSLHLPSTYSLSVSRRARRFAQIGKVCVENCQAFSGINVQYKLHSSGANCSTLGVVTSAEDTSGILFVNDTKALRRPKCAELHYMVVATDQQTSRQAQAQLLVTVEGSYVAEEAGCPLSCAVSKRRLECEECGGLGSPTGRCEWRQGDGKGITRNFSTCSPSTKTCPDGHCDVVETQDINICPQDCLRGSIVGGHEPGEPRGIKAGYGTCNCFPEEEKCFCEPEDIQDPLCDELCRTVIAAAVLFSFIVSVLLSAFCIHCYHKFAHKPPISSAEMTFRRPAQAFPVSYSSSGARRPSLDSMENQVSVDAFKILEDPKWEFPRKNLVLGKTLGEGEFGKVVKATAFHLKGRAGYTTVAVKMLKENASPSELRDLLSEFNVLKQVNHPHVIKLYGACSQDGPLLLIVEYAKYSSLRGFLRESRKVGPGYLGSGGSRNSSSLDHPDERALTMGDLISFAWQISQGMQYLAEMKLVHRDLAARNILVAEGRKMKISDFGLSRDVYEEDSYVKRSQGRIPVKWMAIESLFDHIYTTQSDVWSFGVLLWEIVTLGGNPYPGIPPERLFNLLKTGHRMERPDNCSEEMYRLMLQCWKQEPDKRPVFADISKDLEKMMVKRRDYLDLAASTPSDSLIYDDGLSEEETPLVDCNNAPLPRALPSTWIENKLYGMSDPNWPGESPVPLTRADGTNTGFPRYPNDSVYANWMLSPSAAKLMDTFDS

[2] = biological target: T2, RET kinase Wild Type (Homo sapiens, UniProt P07949);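 further: HTRF kinase activity assay on RET enzyme, 1 h reaction at 22 °C, dual-wavelength readout as percent of control, DMSO-only wells as 100%, pre-quenched reactions as 0%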
T2 sequence (P07949 29-1114): as the sequence (P07949 29-1114 G810S) above, with S782G counted along it

[3] = biological target: T3, G810R mutant RET kinase (Homo sapiens, UniProt P07949, G810R);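 further: HTRF KinEASE-TK enzymatic assay with 1 nM recombinant RET G810R, 1 h at 22 °C, dual-wavelength ratiometric readout, 100% control without compound, 0% from pre-quenched reactions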
T3 sequence (P07949 29-1114 G810R): as the sequence (P07949 29-1114 G810S) above, with S782R counted along it

[4] = biological target: RET kinase V804M (Homo sapiens, UniProt P07949, V804M); experiment: RET Enzyme Assay (CisBio HTRF KinEASE-TK), V804M; assay type: biochemical; settings: read-out: RET V804M Enz FRET IC50
Chain of RET kinase V804M (P07949 29-1114 V804M): as the sequence (P07949 29-1114 G810S) above, with V776M, S782G counted along it

[5] = biological target: T4, HEK-293 cells expressing a Kif5b-RET fusion protein (Homo sapiens, UniProt P07949); experiment: RET Cell Assay (phospho-RET Tyr1062); assay type: cell-based; settings: HEK-293 Kif5b-RET, 1 hour incubation, phospho-RET normalized to GAPDH; read-out: KIF5B-RET pTYR1062 Cell IC50
T4 construct: KIF5B (N-terminal portion incl. coiled-coil); expressed in transfected cells; host or cells: HEK-293; the other entry of the earlier key: KIF5B (P33176, Kinesin-1 heavy chain)
T4 sequence (P07949 713-1063 limits assumed): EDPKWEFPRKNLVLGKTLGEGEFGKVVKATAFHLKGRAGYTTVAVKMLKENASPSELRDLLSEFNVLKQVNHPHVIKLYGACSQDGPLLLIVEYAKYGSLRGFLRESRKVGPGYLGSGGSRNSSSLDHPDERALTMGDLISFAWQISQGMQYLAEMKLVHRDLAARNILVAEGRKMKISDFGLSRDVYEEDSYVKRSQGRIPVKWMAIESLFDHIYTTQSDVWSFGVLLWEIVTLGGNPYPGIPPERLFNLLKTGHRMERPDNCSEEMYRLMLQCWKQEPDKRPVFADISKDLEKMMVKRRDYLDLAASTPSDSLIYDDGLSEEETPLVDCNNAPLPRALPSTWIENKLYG
Summary of the method: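 Phospho-RET (Tyr1062) to GAPDH ratio read by in-cell fluorescent immunodetection after 1 hour compound exposure in DMEM, 0.5% DMSO. Cells: HEK-293 carrying Kif5b-RET fusion. POC data fit to a 4-parameter logistic curve, IC50 taken at 50 POC.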

[6] = biological target: T5, HEK-293 cells expressing a G810R mutant RET Kif5b-RET fusion protein (Homo sapiens, UniProt P07949, G810R); experiment: RET G810R Mutant Cell Assay (phospho-RET Tyr1062); assay type: cell-based; settings: HEK-293 Kif5b-RET G810R, 1 hour incubation, phospho-RET normalized to GAPDH
T5 construct: KIF5B (N-terminal portion incl. coiled-coil); expressed in transfected cells; host or cells: HEK-293; the other entry of the earlier key: KIF5B (P33176, Kinesin-1 heavy chain)
T5 sequence (P07949 713-1063 G810R limits assumed): T4 sequence (P07949 713-1063 limits assumed) with G98R
Summary of the method: (§1)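 Signals came from in-cell immunostaining of fixed, methanol-permeabilized HEK-293 fusion-expressing cells exposed 1 h to compound in DMEM with 0.5% DMSO.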

[7] = biological target: T3, G810R mutant RET kinase; experiment: biochemical
[8] = biological target: T1, G810S mutant RET kinase; experiment: biochemical
[9] = biological target: T6, HEK-293 cells expressing a G810S mutant RET Kif5b-RET fusion protein (Homo sapiens, UniProt P07949, G810S); experiment: RET G810S Mutant Cell Assay (phospho-RET Tyr1062); assay type: cell-based; settings: HEK-293 Kif5b-RET G810S, 1 hour incubation, phospho-RET normalized to GAPDH
T6 construct: KIF5B (N-terminal portion incl. coiled-coil); expressed in transfected cells; host or cells: HEK-293
T6 sequence (P07949 713-1063 G810S limits assumed): T4 sequence (P07949 713-1063 limits assumed) with G98S
Summary of the method: as §1

[10] = biological target: T2, RET kinase Wild Type; experiment: biochemical
[11] = V804M RET, 1 mM ATP, averaged IC50

Compound | IC50 [1] [nM] | IC50 [2] [nM] | IC50 [3] [nM] | IC50 [4, 11] [nM] | IC50 [5] [nM] | IC50 [6] [nM] | IC50 [7] [nM] | IC50 [8] [nM] | IC50 [9] [nM] | IC50 [10] [nM] | IC50 [4] [nM]
Cc1ccc2c(c1)cc1n2C(=O)NCc2c-1c1c(N)ncnc1n2C(C)C [Example 81, 1-amino-5-isopropyl-12-methyl-6,7-dihydropyrimido[5″,4″:4′,5′]pyrrolo[2′,3′: 5,6][1,3]diazepino[1,7-a]indol-8(5H)-one] | – | – | – | – | 11 | 76 | 94 | 52 | 39 | 19 | 5490
CC1Cc2c(c3c(N)ncnc3n2C(C)C)-c2noc(C3CC3)c2C1O (stereo not shown) [Example 61, 11-amino-3-cyclopropyl-7-isopropyl-5-methyl-4,5,6,7-tetrahydroisoxazolo[4″,3″:6′,7′]cyclohepta[1′,2′:4,5]pyrrolo[2,3-d]pyrimidin-4-ol] | – | – | – | – | 33 | 281 | 89 | 58 | 101 | 31 | 136
CO[C@@H]1CCc2c(c3c(N)ncnc3n2C(C)C)-c2noc(C3CC3)c21 (single isomer, unassigned) [Example 58] | – | – | – | – | 49 | 186 | 64 | 159 | 181 | 23 | 66
Nc1ncnc2c1c1c(n2C2CCCC2)CC[C@@H](O)c2c-1noc2C1CC1 (single isomer, unassigned) [Example 125] | – | – | – | – | 7 | 16 | 41 | 19 | 16 | 11 | 19
CC(C)n1c2c(c3c(N)ncnc31)-c1noc(C3CC3)c1C(O)CC2 (racemic) [Example 29, 11-amino-3-cyclopropyl-7-isopropyl-4,5,6,7-tetrahydroisoxazolo[4″,3″:6′,7′]cyclohepta[1′,2′:4,5]pyrrolo[2,3-d]pyrimidin-4-ol] | – | – | – | – | 12 | 71 | 27 | 25 | 37 | 8 | 26
Nc1ncnc2c1c1c(n2C(CF)CF)CC[C@H](O)c2c-1noc2C1CC1 (single isomer, unassigned) [Example 126] | – | – | – | – | 5 | 29 | 15 | 9 | 26 | 6 | 30
CC(C)n1c2c(c3c(N)ncnc31)-c1noc(C3CC3)c1[C@H](O)CC2 (single isomer, unassigned) [Example 55] | – | – | – | – | 10 | 46 | 31 | 29 | 40 | 8 | 21
CC(C)n1c2c(c3c(N)ncnc31)-c1cc3ccc(C(=O)NC4(C)CC4)cc3n1CCC2 [Example 97, 1-amino-5-isopropyl-N-(1-methylcyclopropyl)-5,6,7,8-tetrahydropyrimido[5″,4″:4′,5′]pyrrolo[3′,2′: 3,4]azepino[1,2-a]indole-11-carboxamide] | – | – | – | – | 26 | 47 | 478 | 457 | 47 | 73 | 4460
CC(C)n1c2c(c3c(N)ncnc31)-c1noc(C3CC3)c1C(=O)NC2 [Example 19, 11-amino-3-cyclopropyl-7-isopropyl-6,7-dihydroisoxazolo[4,3-c]pyrimido[5′,4′:4,5]pyrrolo[3,2-e]azepin-4(5H)-one 2,2,2-trifluoroacetate] | – | – | – | – | 53 | 262 | 103 | 215 | 184 | 45 | 202

Other lines, results leading:

IC50 [1] [nM] | IC50 [2] [nM] | IC50 [3] [nM] | IC50 [4, 11] [nM] | IC50 [5] [nM] | IC50 [6] [nM] | IC50 [7] [nM] | IC50 [8] [nM] | IC50 [9] [nM] | IC50 [10] [nM] | IC50 [4] [nM] | Compound
425 | 124 | 157 | 505 | – | – | – | – | – | – | – | COC(=O)[C@H]1C[C@H](n2c3c(c4c(N)ncnc42)-c2noc(C4CC4)c2C(=O)CC3)C1 [Example 142, Methyl (1r,3r)-3-(11-amino-3-cyclopropyl-4-oxo-5,6-dihydroisoxazolo[4″,3″:6′,7′]cyclohepta[1′,2′:4,5]pyrrolo[2,3-d]pyrimidin-7(4H)-yl)cyclobutane-1-carboxylate]
2320 | 1710 | 4460 | 1940 | – | – | – | – | – | – | – | Nc1ncnc2c1c1c(n2C2CCNC2)CCC(O)c2c-1noc2C1CC1 (stereo not drawn) [Example 132, (Cis)-11-amino-3-cyclopropyl-7-(pyrrolidin-3-yl)-4,5,6,7-tetrahydroisoxazolo[4″,3″:6′,7]cyclohepta[1′,2′:4,5]pyrrolo[2,3-d]pyrimidin-4-ol 2,2,2-trifluoroacetate]
101 | 20 | 85 | 31 | 73 | 120 | – | – | – | – | – | C[C@H](n1c2c(c3c(N)ncnc31)-c1noc(C3CC3)c1[C@H](O)CC2)C(F)(F)F (single isomer, unassigned) [Example 145]
– | – | – | – | 21 | 56 | 74 | 94 | 90 | 14 | 32 | C[C@@H](n1c2c(c3c(N)ncnc31)-c1noc(C3CC3)c1[C@H](O)CC2)C(F)(F)F (single isomer, unassigned) [Example 147, 2,2,2-trifluoroacetate]
3400 | 2640 | 6140 | 6200 | – | – | – | – | – | – | – | Nc1ncnc2c1c1c(n2C2CCNC2)CCC(O)c2c-1noc2C1CC1 (stereo not drawn) [Example 133, (Trans)-11-amino-3-cyclopropyl-7-(pyrrolidin-3-yl)-4,5,6,7-tetrahydroisoxazolo[4″,3″:6′,7′]cyclohepta[1′,2′:4,5]pyrrolo[2,3-d]pyrimidin-4-ol 2,2,2-trifluoroacetate]
